The record followed here is US9381196B2, “Compounds, pharmaceutical compositions and methods of use of hydroxamic acid derivatives” (THE TRANSLATIONAL GENOMICS RESEARCH INSTITUTE, priority 2008, dated 2016).

For one test, the system named is Skov-3 cells. The test can be described thus: CellTiter-Blue cell viability assay, SKOV3 cell line. It counts as cell-based. To be noted: cell growth inhibition. The source says:
Cell viability in the presence of varying concentrations of the above listed aspects of the disclosed compound at different time points was used to assess cytotoxicity and the effect of the disclosed compound on cell proliferation.
In general terms: Resazurin is reduced to fluorescent resorufin, in cell work by metabolically active cells.

A further test deals with MiaPaca cells. The test can be described thus: CellTiter-Blue cell viability assay, MiaPaCa cell line. Format: cell-based, human. To be noted: cell growth inhibition.
For a further test, the system named is mdamb231 cells. The test is described as follows: CellTiter-Blue cell viability assay, mdamb231 cell line. Format: cell-based. To be noted: cell growth inhibition.
For the next test, the system named is A2780 cell line. To be noted: 72 hours treatment. The protocol: (§1) Cell viability was measured by the CellTiter-Blue® cell viability assay Promega (Madison, Wis.). This procedure measures the conversion of the indicator dye (resazurin) to resorufin, an indicator of cell viability. Following treatment, growth media was removed and cells were incubated with 20 μl of CellTiter-Blue® Reagent and growth media for 1-4 hours at 37° C. Fluorescence values were measured at 535/590 nm using a Beckman-Coulter DTX-880 microplate reader.
(§2) Cells were grown to 70% confluency, trypsinized, counted, and seeded in 96 well flat-bottom plates at a final concentration of 2.5×10^3-5×10^3 cells/well (Day 0). Cells were allowed to incubate in growth media for 24 hours to allow for maximum adhesion. Treatment with the test agents or standard agents began on Day 1 and continued for 72 hours. At the 72 hour timepoint, treatment including media was removed. Viable cell numbers are quantified by the CellTiter-Blue® cell viability assay as described above. Experiments were repeated at least twice with the same concentrations to determine growth inhibitory activity.
(§3) Single agent and combination studies, data from each experiment was collected and expressed as % Cell Growth using the following calculation: % Cell Growth=(ftest/fvehicle)×100
(§4) Where ftest is the fluorescence of the tested sample, and fvehicle is the fluorescence of the vehicle in which the drug is dissolved. Dose response graphs and IC50 values were generated using Prism 4 software (GraphPad) using the following equation: […]
(§5) Where X is the logarithm of concentration and Y is the response.

In another test the test system is H23 cell line. To be noted: 72 hours treatment. The protocol: as §1, §2, §3, §4, §5
A further test has as its system H295R cell line. To be noted: 72 hours treatment. The protocol:
as §1, §2, §3, §4, §5

Another test relates to MV522 cell line. The settings on record: 72 hours treatment. The protocol: as §1, §2, §3, §4, §5
A further test deals with PANC-1 cell line. The settings on record: 72 hours treatment. The protocol:
as §1, §2, §3, §4, §5

Another test concerns VCAP cell line. To be noted: 72 hours treatment. As for the experimental part: as §1, §2, §3, §4, §5
For test [1], the system named is MIA PaCa-2 human pancreas cells xenograft. The settings on record: MIA PaCa-2 xenograft in nude mice. The protocol:
In vivo efficacy of the disclosed compound was tested through a human pancreas tumor xenograft model. Female Ncr nude mice were inoculated with 1×10^7 MIA PaCa-2 human pancreas cells suspended in a mixture of 50% Matrigel and 50% tissue culture media in a total volume of […] When the tumors reached a mean weight of 157 mg, the mice were separated into four groups of 7-8 mice per group and treated. One group was treated with vehicle only. A second group was treated with Compound ID #15 at 50 mg/kg. A third group was treated with Compound ID #15 at 100 mg/kg and a fourth group was treated with Gemcitabine at 80 mg/kg. Vehicle and Compound ID #15 were administered by mouth while Gemcitabine was administered via an intraperitoneal injection. Body weights and tumor size data were collected twice weekly. Tumor width and length were measured in millimeters and converted to tumor weight (in milligrams) using the formula (width^2×Length/2)=tumor weight (mg.)

The mark [2] stands for this setting: Homo sapiens, SK-OV-3, 72 hours treatment.
[3] abbreviates: Homo sapiens, MIA PaCa-2, 72 hours treatment.
Where [4] appears, read: Homo sapiens, MDA-MB-231, 72 hours treatment.

Where two headings read alike, the source gives them in different places.

Source text for MiaPaca cells: (§6) Where X is the logarithm of concentration and Y is the response. Y starts at the Bottom and goes to Top with a sigmoid shape.
Source text for mdamb231 cells: as §6

By IC50 is commonly meant the concentration at which inhibition is half-maximal. In the case of “7-(5-bromo-1H-benzimidazol-2-yl)-N-hydroxy heptanamide [Compound ID 15]”, the IC50 was 0.27 µM in the test with Skov-3 cells (72 hours treatment); 0.82 µM in the test with MiaPaca cells (72 hours treatment); 0.89 µM in the test with mdamb231 cells (72 hours treatment); 1.9 µM in the test on A2780 cell line; 0.56 µM in the test with H23 cell line; 0.18 µM in the test on H295R cell line. In addition, the IC50 in the test on MV522 cell line was 2.2 µM; in the test on PANC-1 cell line, 0.13 µM; in the test on VCAP cell line it was 2.4 µM. Besides, the “slowing growth of the xenografts” value in test [1] (50 mg/kg by mouth) is “no more effective than the vehicle control”; in test [1] (100 mg/kg by mouth, comparator gemcitabine 80 mg/kg intraperitoneal) it was “about as effective as gemcitabine”.
`O=C(CCCCCCc1nc2ccccc2[nH]1)NO` [Compound ID 14, 7-(1H-benzo[d]imidazol-2-yl)-N-hydroxyheptanamide]: the IC50 in the test with Skov-3 cells (setting [2]) amounted to 2.7 µM; in the test on MiaPaca cells (setting [3]) it was 1.9 µM.
As for `O=C(CCCCCc1nc2ccccc2[nH]1)NO` [Compound ID 16, 6-(1H-benzo[d]imidazol-2-yl)-N-hydroxyhexanamide], the IC50 with Skov-3 cells (setting [2]) worked out at 11 µM.
Regarding `COc1ccc2[nH]c(CCCCCCC(=O)NO)nc2c1` [Compound ID 17, N-hydroxy-7-(5-methoxy-1H-benzo[d]imidazol-2-yl)heptanamide], the IC50 in the test with Skov-3 cells (setting [2]) was > 10 µM.
Regarding `O=C(CCCCCCc1nc2cc(-c3ccccc3)ccc2[nH]1)NO` [Compound ID 18, N-hydroxy-7-(5-phenyl-1H-benzo[d]imidazol-2-yl)heptanamide], the IC50 in the test with Skov-3 cells (setting [2]) turned out to be 0.098 µM; in the test on MiaPaca cells (setting [3]), 0.4 µM.
On to `Cn1c(CCCCCCC(=O)NO)nc2ccccc21` [Compound ID 19, N-hydroxy-7-(1-methyl-1H-benzo[d]imidazol-2-yl) heptanamide], for which, in the test on Skov-3 cells (72 hours treatment), the IC50 was determined as 3 µM.
`CN(C)c1ccc2[nH]c(CCCCCCC(=O)NO)nc2c1` [Compound ID 20, 7-(5-(dimethylamino)-1H-benzo[d]imidazol-2-yl)-N-hydroxyheptanamide] yielded an IC50 with Skov-3 cells (setting [2]) of 1.2 µM.
For `O=C(CCCCCCc1nc2cc(F)ccc2[nH]1)NO` [Compound ID 21, 7-(5-fluoro-1H-benzo[d]imidazol-2-yl)-N-hydroxyheptanamide], the 50% inhibitory concentration (IC50) in the test on Skov-3 cells (setting [2]) came out at 1.9 µM.
`O=C(CCCCCCc1nc2cc(Cl)ccc2[nH]1)NO` [Compound ID 22, 7-(5-chloro-1H-benzo[d]imidazol-2-yl)-N-hydroxyheptanamide] registered an IC50 with Skov-3 cells (setting [2]) of 0.32 µM.
As to `O=C(CCCCCCc1nc2ccncc2[nH]1)NO` [Compound ID 23, N-hydroxy-7-(3H-imidazo[4,5-c]pyridin-2-yl)heptanamide], the IC50 in the test on Skov-3 cells (setting [2]) and in the test on MiaPaca cells (setting [3]) was > 10 µM in each case.
Consider `O=C(CCCCCCc1nc2ccccc2n1C1CC1)NO` [Compound ID 24, 7-(1-cyclopropyl-1H-benzo[d]imidazol-2-yl)-N-hydroxyheptanamide], for which the IC50 is 9.5 µM in the test on Skov-3 cells (setting [2]) and 4 µM in the test on MiaPaca cells (setting [3]).
In the case of `O=C(CCCCCCc1nc2ccccc2n1C1CCCC1)NO` [Compound ID 25, 7-(1-cyclopentyl-1H-benzo[d]imidazol-2-yl)-N-hydroxyheptanamide], the IC50 stood at 4.8 µM in the test with Skov-3 cells (setting [2]) and 2.3 µM in the test on MiaPaca cells (setting [3]).
Regarding `O=C(CCCCCCc1nc2c(Cl)cccc2[nH]1)NO` [Compound ID 26, 7-(4-chloro-1H-benzo[d]imidazol-2-yl)-N-hydroxyheptanamide], the IC50 in the test with Skov-3 cells (setting [2]) was found to be 10.2 µM; in the test on MiaPaca cells (setting [3]), 8.5 µM.
The like results for `O=C(CCCCCCc1nc2ccccc2n1-c1ccccc1)NO` [Compound ID 27, N-hydroxy-7-(1-phenyl-1H-benzo[d]imidazol-2-yl)heptanamide] were, in that order, > 10 µM and > 10 µM.
With `O=C(CCCCCCc1nc2cc(-c3cncnc3)ccc2[nH]1)NO` [Compound ID 28, N-hydroxy-7-(5-(pyrimidin-5-yl)-1H-benzo[d]imidazol-2-yl)heptanamide], the IC50 was found to be 2.6 µM with Skov-3 cells (setting [2]) and 0.54 µM in the test with mdamb231 cells (setting [4]).
With `O=C(CCCCCCc1nc2cc(-c3ccc(F)cc3)ccc2[nH]1)NO` [Compound ID 29, 7-(5-(4-fluorophenyl)-1H-benzo[d]imidazol-2-yl)-N-hydroxyheptanamide], the IC50 in the test with Skov-3 cells (setting [2]) is 1.2 µM; with mdamb231 cells (setting [4]) it was 0.21 µM.
On to `O=C(CCCCCCc1nc2cc(-c3cccc(F)c3)ccc2[nH]1)NO` [Compound ID 30, 7-(5-(3-fluorophenyl)-1H-benzo[d]imidazol-2-yl)-N-hydroxyheptanamide], for which the IC50 in the test with Skov-3 cells (setting [2]) was 1.5 µM; with mdamb231 cells (setting [4]), 0.33 µM.
In turn, `CN(C)c1ccc(-c2ccc3[nH]c(CCCCCCC(=O)NO)nc3c2)cc1` [Compound ID 31, 7-(5-(4-(dimethylamino)phenyl)-1H-benzo[d]imidazol-2-yl)-N-hydroxyheptanamide] showed an IC50 in the test with Skov-3 cells (setting [2]) of 6.6 µM.
As to `O=C(CCCCCCc1nc2cc(-c3ccccc3F)ccc2[nH]1)NO` [Compound ID 32, 7-(5-(2-fluorophenyl)-1H-benzo[d]imidazol-2-yl)-N-hydroxyheptanamide], in the test on Skov-3 cells (setting [2]), the IC50 was determined as 7.4 µM.
Same read-out and setting: the result for `COc1ccc(-c2ccc3[nH]c(CCCCCCC(=O)NO)nc3c2)cc1` [Compound ID 33, N-hydroxy-7-(5-(4-methoxyphenyl)-1H-benzo[d]imidazol-2-yl)heptanamide] reads 3.2 µM.
